Literature values as cited in patent US12453719B2, “Treatment method using a complex of angiotensin II receptor antagonist metabolite and NEP inhibitor” (Shenzhen Salubris Pharmaceuticals Co., Ltd., priority 2019, dated 2025).
Read-outs that look alike come from different tables or passages of the source.

Key:
[1] = arithmetic mean
[2] = single oral administration of Losartan

AUC Losartan ([1]; single administration of Losartan 40 mg (n = 15)): 391.5 ng·h/mL | AUC Losartan ([1]; single administration of Losartan 50 mg (n = 12)): 395.0 ng·h/mL | AUC Losartan ([1]; single administration of Losartan 80 mg (n = 8)): 932.7 ng·h/mL | AUC Losartan ([1]; single administration of Losartan 120 mg (n = 8)): 1277.7 ng·h/mL | AUC Losartan ([1]; single administration of Losartan 150 mg (n = 8)): 1678.0 ng·h/mL | AUC Losartan ([1]; single administration of Losartan 200 mg (n = 15)): 2371.6 ng·h/mL | AUC Losartan ([1]; single administration of Losartan 250 mg (n = 7)): 2567.3 ng·h/mL | AUC Losartan ([1]; single administration of Losartan 300 mg (n = 7)): 3492.4 ng·h/mL | in vivo EXP3174 exposure (AUC) relative to the prototype drug [2]: about four
SMILES: CCCCc1nc(Cl)c(CO)n1Cc1ccc(-c2ccccc2-c2nn[nH]n2)cc1 [Losartan]
